Ends that are not written are not given here.
How the values were obtained:
Type in all cases: cell-based
VEGF = VEGF RT-PCR; settings: human hair follicle dermal papilla cells, 24 hours
Experimental: (§1) Human hair follicle dermal papilla cells were seeded at a density of 4×10^5 cells/well on 6-well plates, followed by incubation overnight. After changing into serum-free medium, the cells were treated with the peptides, followed by incubation for 24 hours, and then the wells were harvested to isolate RNA. After RNA quantification, cDNA synthesis was conducted using the cDNA synthesis kit (Intron, Korea), followed by PCR using PCR premix (Intron, Korea) and respective KGF, bFGF, and VEGF primers, and then electrophoresis was performed on 5% agarose gel to compare the mRNA expression levels of the growth factors for each sample treatment conditions.

bFGF = bFGF RT-PCR; settings: human hair follicle dermal papilla cells, 24 hours
Experimental: as §1

ERK = experiment: p-ERK Western blot; settings: human hair follicle dermal papilla cells, 15 and 30 minutes
Experimental: (§2) Human hair follicle dermal papilla cells were seeded at a density of 4×10^5 cells/well on 6-well plates, followed by incubation overnight. After changing into serum-free medium, the cells were treated with the peptides, followed by incubation for 15 and 30 minutes, and then the wells were harvested to prepare cell lysates. Western blotting was performed using PI3K antibodies (Santa Cruz Biotechnology, USA) and phospho-ERK antibody (Cell Signaling Technology, USA) to compare protein expression patterns.

[1] = test system: Human hair follicle dermal papilla cells; experiment: DPC proliferation assay (MTT); settings: serum-free medium, 3 days incubation, absorbance 550 nm
Experimental: Human hair follicle dermal papilla cells were seeded at a density of 2×10^3 cells/well on 96-well plates, followed by incubation overnight. After changing into serum-free medium, the cells were treated with the peptides, followed by incubation for 3 days, and then the wells were treated with 4 mg/ml MTT solution, followed by reaction for 4 hours. The resulting formazan was solubilized with DNSO, and then the absorbance was measured at 550 nm using a microplate reader.

Bax = Bax Western blot; settings: human hair follicle dermal papilla cells, 24 hours
Experimental: as §2, with “plate,” for “plates,”, “24 hours,” for “15 and 30 minutes,”, “Bcl-2 and Bax” for “PI3K”, “Biotechnology,” for “Biotechnology, USA) and phospho-ERK antibody (Cell Signaling Technology,”

Bcl-2 = Bcl-2 Western blot; settings: human hair follicle dermal papilla cells, 24 hours
Experimental: as §2, with “plate,” for “plates,”, “24 hours,” for “15 and 30 minutes,”, “Bcl-2 and Bax” for “PI3K”, “Biotechnology,” for “Biotechnology, USA) and phospho-ERK antibody (Cell Signaling Technology,”

PI3K = PI3K Western blot; settings: human hair follicle dermal papilla cells, 15 and 30 minutes
Experimental: as §2

β-catenin = experiment: β-Catenin activation test (Western blot of nuclear protein); settings: human hair follicle dermal papilla cells, 15 and 30 minutes, Western blot of nuclei
Experimental: as §2, with “isolate nuclear and cytoplasmic proteins.” for “prepare cell lysates.”, “β-catenin” for “PI3K antibodies”, “USA)” for “USA) and phospho-ERK antibody (Cell Signaling Technology, USA)”, “β-catenin” for “protein”, “patterns in nuclei.” for “patterns.”

MSX2 = MSX2 RT-PCR; settings: human hair follicle dermal papilla cells, 24 hours
Experimental: as §1, with “MSX2” for “respective KGF, bFGF, and VEGF”, “levels” for “levels of the growth factors”

TGF-β1 = TGF-β1 RT-PCR; settings: human hair follicle dermal papilla cells, 24 hours
Experimental: as §1, with “separate” for “isolate”, “TGF-β1” for “respective KGF, bFGF, and VEGF”, “levels” for “levels of the growth factors”

KGF = KGF RT-PCR; settings: human hair follicle dermal papilla cells, 24 hours
Experimental: as §1

keratin-14 = experiment: Keratin-14 RT-PCR; settings: human hair follicle dermal papilla cells, 24 hours
Experimental: as §1, with “5×10^5” for “4×10^5”, “keratin” for “respective KGF, bFGF, and VEGF”, “levels” for “levels of the growth factors”, “respective” for “each”

Row | Substance | mRNA expression of VEGF (VEGF) | mRNA expression of bFGF (bFGF) | ERK phosphorylation (ERK) | growth of human hair follicle dermal papilla cells [1] | expression of the apoptosis-related protein Bax (Bax) | expression of the apoptosis inhibiting protein Bcl-2 (Bcl-2) | PI3K expression (PI3K) | nuclear translocation due to the increase in activity of β-catenin (β-catenin) | mRNA expression of MSX2 (MSX2) | mRNA expression of TGF-β1 (TGF-β1) | mRNA expression of KGF (KGF) | mRNA expression of keratin-14 (keratin-14)
1 | KKFIQQVYLAI [SEQ ID NO: 3] | increased | increased | increase | stimulated in a dose-dependent manner | decrease | increase | increase | stimulated | stimulated |  |  | 
2 | Ile-Tyr-Phe-Tyr (IYFY) [SEQ ID NO: 2] | increased |  | increase | stimulated in a dose-dependent manner |  |  | increase | stimulated | stimulated | inhibited |  | 
3 | Arg-Arg-Lys-Ile (RRKI) [SEQ ID NO: 1] |  | increased | increase | stimulated in a dose-dependent manner | decrease | increase | increase | stimulated |  | inhibited | increased | increased

Reference: patent publication US10568828B2, “Peptide having hair growth-promoting activity and use thereof” (CAREGEN CO., LTD., priority 2016, dated 2020)
